Active and inactive are the calls of the source. No cut-off for these calls is given here.
What was measured:
[1] = target: T1, Transcriptional activator protein LuxR (Aliivibrio fischeri) (UniProt P12746); experiment: Induction of LuxR-dependent quorum sensing in Vibrio fischeri assessed as induction of bioluminescence intensity up to 200 uM
T1 sequence (whole entry): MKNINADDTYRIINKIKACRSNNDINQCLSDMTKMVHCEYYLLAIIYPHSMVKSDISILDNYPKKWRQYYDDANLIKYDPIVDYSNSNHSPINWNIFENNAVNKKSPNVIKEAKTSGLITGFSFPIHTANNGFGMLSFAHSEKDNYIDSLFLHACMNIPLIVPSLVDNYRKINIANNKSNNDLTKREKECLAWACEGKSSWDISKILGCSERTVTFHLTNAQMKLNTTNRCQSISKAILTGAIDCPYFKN

[2] = target: T2, Transcriptional activator protein LuxR (Aliivibrio fischeri, UniProt P12746); experiment: Inhibition of LuxR-dependent quorum sensing in Vibrio fischeri assessed as reduction of 3-oxo-C6-HSL-induced bioluminescence intensity
T2 sequence (P12746 whole entry): T1 sequence (whole entry)

[3] = target: T1, Transcriptional activator protein LuxR (Aliivibrio fischeri); experiment: Inhibition of LuxR-dependent quorum sensing in Vibrio fischeri assessed as reduction of 3-oxo-C6-HSL-induced bioluminescence intensity at 20 uM
[4] = target: T1, Transcriptional activator protein LuxR (Aliivibrio fischeri); experiment: Inhibition of LuxR-dependent quorum sensing in Vibrio fischeri assessed as reduction of 3-oxo-C6-HSL-induced bioluminescence intensity at 40 uM

Row | SMILES | Activity [1] | IC50 [2] [µM] | inhibition [3] [%] | inhibition [4] [%]
1 | Clc1ccc(C(c2ccc(Cl)cc2)[n+]2ccn(CC(OCc3ccc(Cl)cc3Cl)c3ccc(Cl)cc3Cl)c2)cc1 (centres undefined) | inactive | – | – | –
2 | Clc1ccc(C(c2ccc(Cl)cc2)n2cc[n+](CC(OCc3ccc(Cl)cc3Cl)c3ccc(Cl)cc3Cl)c2)cc1 (centres undefined) [CALMIDAZOLIUM CHLORIDE] | – | 7 | – | –
3 | CC(NCCC(c1ccccc1)c1ccccc1)c1ccccc1 (centres undefined) [FENDILINE] | inactive | 91 | – | –
4 | CN1CCC(=C2c3ccccc3Sc3ccccc32)CC1 [PIMETHIXENE] | inactive | 56 | – | –
5 | CN[C@H]1CC[C@@H](c2ccc(Cl)c(Cl)c2)c2ccccc21 [SERTRALINE] | inactive | 27 | – | –
6 | CC/C(=C(\c1ccccc1)c1ccc(OCCN(C)C)cc1)c1ccccc1 [TAMOXIFEN] | inactive | 40 | 73.6 | 53
7 | CC(C)(C)c1ccc(C(O)CCCN2CCC(C(O)(c3ccccc3)c3ccccc3)CC2)cc1 (centres undefined) [TERFENADINE] | inactive | 92 | – | –
